Source: the NIST ThermoML archive (doi:10.1021/acs.jced.5b00317)

Assay: mn = molality of the nth substance listed, in mol/kg
Details: 101 kPa, Liquid; for speed of sound: Sing-around technique in a fixed-path interferometer; for mass density: Vibrating tube method

Cc1onc(-c2c(F)cccc2Cl)c1C(=O)N[C@@H]1C(=O)N2[C@@H]1SC(C)(C)[C@@H]2C(=O)[O-].[Na+] + O
Details | mass density [kg/m3] | speed of sound [m/s]
298.15 K, m1 = 0.03508 | 1003.21 | 1503
298.15 K, m1 = 0.05711 | 1007 | 1506.4
298.15 K, m1 = 0.07305 | 1009.68 | 1508.6
298.15 K, m1 = 0.09335 | 1013.04 | 1511.2
298.15 K, m1 = 0.1142 | 1016.42 | 1513.7
298.15 K, m1 = 0.1343 | 1019.68 | 1515.8
298.15 K, m1 = 0.148 | 1021.89 | 1517.2
298.15 K, m1 = 0.1675 | 1025.02 | 1518.9
298.15 K, m1 = 0.1812 | 1027.16 | 1520.1
303.15 K, m1 = 0.03508 | 1001.74 | 1514.8
303.15 K, m1 = 0.05711 | 1005.49 | 1517.8
303.15 K, m1 = 0.07305 | 1008.14 | 1519.9
303.15 K, m1 = 0.09335 | 1011.46 | 1522.2
303.15 K, m1 = 0.1142 | 1014.8 | 1524.4
303.15 K, m1 = 0.1343 | 1018.04 | 1526.4
303.15 K, m1 = 0.148 | 1020.23 | 1527.6
303.15 K, m1 = 0.1675 | 1023.33 | 1529.2
303.15 K, m1 = 0.1812 | 1025.46 | 1530.2
308.15 K, m1 = 0.03508 | 1000.05 | 1524.9
308.15 K, m1 = 0.05711 | 1003.77 | 1527.6
308.15 K, m1 = 0.07305 | 1006.39 | 1529.5
308.15 K, m1 = 0.09335 | 1009.67 | 1531.6
308.15 K, m1 = 0.1142 | 1012.98 | 1533.5
308.15 K, m1 = 0.1343 | 1016.18 | 1535.3
308.15 K, m1 = 0.148 | 1018.35 | 1536.4
308.15 K, m1 = 0.1675 | 1021.43 | 1537.8
308.15 K, m1 = 0.1812 | 1023.54 | 1538.7
313.15 K, m1 = 0.03508 | 998.174 | 1533.5
313.15 K, m1 = 0.05711 | 1001.85 | 1535.9
313.15 K, m1 = 0.07305 | 1004.44 | 1537.5
313.15 K, m1 = 0.09335 | 1007.69 | 1539.4
313.15 K, m1 = 0.1142 | 1010.97 | 1541.1
313.15 K, m1 = 0.1343 | 1014.14 | 1542.7
313.15 K, m1 = 0.148 | 1016.29 | 1543.7
313.15 K, m1 = 0.1675 | 1019.34 | 1544.9
313.15 K, m1 = 0.1812 | 1021.43 | 1545.7
318.15 K, m1 = 0.03508 | 996.11 | 1540.5
318.15 K, m1 = 0.05711 | 999.746 | 1542.6
318.15 K, m1 = 0.07305 | 1002.31 | 1544.1
318.15 K, m1 = 0.09335 | 1005.53 | 1545.7
318.15 K, m1 = 0.1142 | 1008.77 | 1547.3
318.15 K, m1 = 0.1343 | 1011.91 | 1548.7
318.15 K, m1 = 0.148 | 1014.05 | 1549.5
318.15 K, m1 = 0.1675 | 1017.07 | 1550.6
318.15 K, m1 = 0.1812 | 1019.15 | 1551.4
323.15 K, m1 = 0.03508 | 993.877 | 1546.1
323.15 K, m1 = 0.05711 | 997.477 | 1548
323.15 K, m1 = 0.07305 | 1000.02 | 1549.2
323.15 K, m1 = 0.09335 | 1003.2 | 1550.7
323.15 K, m1 = 0.1142 | 1006.42 | 1552.1
323.15 K, m1 = 0.1343 | 1009.52 | 1553.3
323.15 K, m1 = 0.148 | 1011.64 | 1554
323.15 K, m1 = 0.1675 | 1014.64 | 1555
323.15 K, m1 = 0.1812 | 1016.7 | 1555.7
